Reference: patent US20110039873A1, “SUBSTITUTED PYRAZOLO[1,5-a] PYRIDINE COMPOUNDS HAVING MULTI-TARGET ACTIVITY” (priority 2009, published 2011)
Where two headings read alike, the source gives them in different places.

What was measured:
[1] = biological target: T1, recombinant full length human JNK3 enzyme (Homo sapiens, UniProt P53779); test: JNK 3 inhibition assay (ATP depletion, luciferase); assay type: biochemical; conditions: for IC50: 10 uM ATP, ATF2 substrate; for JNK-3 inhibition (in words): see Table 2
T1 construct: recombinant full length human JNK2 or JNK3 enzyme; purchased Upstate; host or cells: Sf21 cells
T1 sequence (P53779 whole entry): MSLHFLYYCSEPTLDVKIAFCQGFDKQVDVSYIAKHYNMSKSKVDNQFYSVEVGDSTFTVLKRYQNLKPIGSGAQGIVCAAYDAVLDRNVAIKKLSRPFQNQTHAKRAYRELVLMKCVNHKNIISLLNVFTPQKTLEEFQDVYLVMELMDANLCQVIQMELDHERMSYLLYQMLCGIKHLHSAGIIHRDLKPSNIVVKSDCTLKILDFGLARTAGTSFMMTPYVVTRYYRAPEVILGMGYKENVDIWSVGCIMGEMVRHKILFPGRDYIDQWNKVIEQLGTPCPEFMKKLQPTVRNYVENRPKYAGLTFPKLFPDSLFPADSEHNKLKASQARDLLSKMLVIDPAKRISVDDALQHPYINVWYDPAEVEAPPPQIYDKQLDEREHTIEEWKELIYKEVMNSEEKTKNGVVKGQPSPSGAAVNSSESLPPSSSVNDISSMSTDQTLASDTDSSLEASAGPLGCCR
Protocol: In a 96-well plate, recombinant full length human JNK2 or JNK3 enzyme (40 ng) expressed in Sf21 cells (Upstate) was incubated with the substrate ATF2 (3 uM) for 1 hour in the presence of 10 uM ATP. […] The ATP levels were quantified using luciferase with luminescence read on a Victor Light 1420 luminometer. IC50 calculations were plotted using a nonlinear regression curve fit.

[2] = test system: Mouse BV-2 microglial cells; test: BV-2 glial cell assay (TNF-α and MCP-1 by Luminex); assay type: cell-based; conditions: for EC50: Mus musculus, BV-2, LPS and IFN-γ activated, 20 hours; for inhibiting glial cell activation (TNF-α and/or MCP-1): Table 3
Protocol: Mouse BV-2 microglial cells were seeded on 96-well plates at a concentration of 3×10^4 cells/well. Cells were activated with 100 ng/mL LPS and IFN-γ (100 ng/mL) in the presence or absence of test compounds (0-30 uM). Following incubation for 20 hours, cells were spun down and supernatant collected. The supernatant was analyzed via Luminex for the presence of TNF-α and MCP-1.

[3] = biological target: T2, catalytic domain of phosphodiesterase 4B enzyme cloned from human brain (Homo sapiens, UniProt Q07343); test: PDE4 inhibition assay (PDELight); assay type: biochemical; conditions: for IC50: 5 uM cAMP, read-out: PDE 4 Inhibition (IC50 in μM)
T2 construct: the catalytic domain of phosphodiesterase 4B enzyme; purchased Scottish Biomedical
T2 sequence (Q07343 330-659 limits assumed): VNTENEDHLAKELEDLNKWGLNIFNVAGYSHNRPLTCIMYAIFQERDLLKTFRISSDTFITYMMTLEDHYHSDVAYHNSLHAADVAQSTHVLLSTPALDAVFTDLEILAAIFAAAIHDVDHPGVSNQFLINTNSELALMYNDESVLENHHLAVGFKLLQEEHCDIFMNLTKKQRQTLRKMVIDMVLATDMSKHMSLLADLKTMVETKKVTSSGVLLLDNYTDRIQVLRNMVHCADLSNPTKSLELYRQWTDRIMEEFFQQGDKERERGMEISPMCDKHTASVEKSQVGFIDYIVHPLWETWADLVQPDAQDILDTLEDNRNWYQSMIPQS
Protocol: In a 96-well plate, the catalytic domain of phosphodiesterase 4B enzyme (40 mU/well) cloned from human brain (Scottish Biomedical) was combined with 5 uM cAMP substrate (Sigma). […] Using a PDELight® kit (Cambrex), the amount of AMP produced in the reaction from the hydrolysis of cAMP was quantified using PDELight AMP Detection Reagent which converts the AMP directly to ATP. The assay uses luciferase, which catalyses the formation of light from the newly formed ATP and luciferin. […] IC50 calculations were plotted using a nonlinear regression curve fit.

[4] = biological target: T3, recombinant full length human JNK2 enzyme (Homo sapiens, UniProt P45984); test: JNK 2 inhibition assay (ATP depletion, luciferase); assay type: biochemical
T3 construct: recombinant full length human JNK2 or JNK3 enzyme; purchased Upstate; host or cells: Sf21 cells
T3 sequence (P45984 whole entry): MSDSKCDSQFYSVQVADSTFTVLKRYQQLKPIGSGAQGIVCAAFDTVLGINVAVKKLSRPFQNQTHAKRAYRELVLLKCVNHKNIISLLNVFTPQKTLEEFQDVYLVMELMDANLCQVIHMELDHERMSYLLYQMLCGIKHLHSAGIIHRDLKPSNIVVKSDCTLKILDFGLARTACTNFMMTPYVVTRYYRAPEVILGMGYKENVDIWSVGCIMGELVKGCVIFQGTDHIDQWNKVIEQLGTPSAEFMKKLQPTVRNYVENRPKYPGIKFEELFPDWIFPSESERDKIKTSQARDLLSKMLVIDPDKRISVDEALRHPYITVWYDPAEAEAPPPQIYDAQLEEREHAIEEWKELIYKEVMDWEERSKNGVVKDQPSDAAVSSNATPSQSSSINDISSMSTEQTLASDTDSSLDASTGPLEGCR
Protocol: In a 96-well plate, recombinant full length human JNK2 or JNK3 enzyme (40 ng) expressed in Sf21 cells (Upstate) was incubated with the substrate ATF2 (3 uM) for 1 hour in the presence of 10 uM ATP. […] IC50 calculations were plotted using a nonlinear regression curve fit.

[5] = biological target: T4, recombinant human phosphodiesterase 10A1 enzyme (Homo sapiens, UniProt Q9Y233); test: PDE10 inhibition assay (PDELight); assay type: biochemical; conditions: for IC50: 1 uM cAMP, read-out: PDE 10 Inhibition (IC50 in μM); for PDE-10 inhibition (in words): Table 2
T4 construct: purchased BPS Biosciences; host or cells: Baculovirus infected Sf9 cells
T4 sequence (Q9Y233 1-779 isoform Q9Y233-1): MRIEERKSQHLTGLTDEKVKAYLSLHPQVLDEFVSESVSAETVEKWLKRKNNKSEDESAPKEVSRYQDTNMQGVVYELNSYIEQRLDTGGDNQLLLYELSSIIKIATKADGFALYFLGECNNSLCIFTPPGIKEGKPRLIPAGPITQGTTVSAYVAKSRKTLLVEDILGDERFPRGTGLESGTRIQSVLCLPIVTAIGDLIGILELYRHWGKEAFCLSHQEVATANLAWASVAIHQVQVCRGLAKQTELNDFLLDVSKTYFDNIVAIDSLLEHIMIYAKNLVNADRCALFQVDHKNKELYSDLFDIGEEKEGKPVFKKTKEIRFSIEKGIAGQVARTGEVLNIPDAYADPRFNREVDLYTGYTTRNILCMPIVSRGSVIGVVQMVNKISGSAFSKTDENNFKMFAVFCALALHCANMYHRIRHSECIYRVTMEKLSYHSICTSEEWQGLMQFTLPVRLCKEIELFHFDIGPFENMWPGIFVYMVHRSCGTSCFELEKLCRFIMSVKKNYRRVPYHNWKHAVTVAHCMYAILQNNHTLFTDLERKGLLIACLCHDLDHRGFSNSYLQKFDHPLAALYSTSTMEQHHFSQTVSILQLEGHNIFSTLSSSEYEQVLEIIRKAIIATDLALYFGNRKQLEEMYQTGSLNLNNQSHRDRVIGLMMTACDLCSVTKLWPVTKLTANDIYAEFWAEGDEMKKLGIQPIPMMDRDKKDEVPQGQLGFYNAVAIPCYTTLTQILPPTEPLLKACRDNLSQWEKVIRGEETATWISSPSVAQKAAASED
Protocol: In a 96-well plate, recombinant human phosphodiesterase 10A1 enzyme (10 U/well) expressed in Baculovirus infected Sf9 cells (BPS Biosciences) was combined with 1 uM cAMP substrate (Sigma). […] Using a PDELight® kit (Cambrex), the amount of AMP produced in the reaction from the hydrolysis of cAMP was quantified using PDELight AMP Detection Reagent which converts the AMP directly to ATP. The assay uses luciferase, which catalyses the formation of light from the newly formed ATP and luciferin. The luminescence was read on a Victor Light 1420 luminometer. IC50 calculations were plotted using a nonlinear regression curve fit.

[6] = test system: at least one of JNK 3 or JNK 2 and at least one of PDE 10 or PDE 4; test: Dual inhibition (phosphodiesterase and JNK); assay type: biochemical, human; conditions: IC50 JNK 3 or JNK 2 less than about 5.00 μM and PDE 10 or PDE 4 less than about 20.0 or 30.0 μM
Protocol: In a 96-well plate, recombinant full length human JNK2 or JNK3 enzyme (40 ng) expressed in Sf21 cells (Upstate) was incubated with the substrate ATF2 (3 uM) for 1 hour in the presence of 10 uM ATP. The amount of ATP depletion by the JNK enzyme is measured in the presence or absence of test compounds (0-30 uM). The ATP levels were quantified using luciferase with luminescence read on a Victor Light 1420 luminometer. IC50 calculations were plotted using a nonlinear regression curve fit.
In a 96-well plate, the catalytic domain of phosphodiesterase 4B enzyme (40 mU/well) cloned from human brain (Scottish Biomedical) was combined with 5 uM cAMP substrate (Sigma). Test compounds (0-30 uM) or vehicle (0.5% DMSO) were added to the enzyme/substrate and incubated 1 hour. Using a PDELight® kit (Cambrex), the amount of AMP produced in the reaction from the hydrolysis of cAMP was quantified using PDELight AMP Detection Reagent which converts the AMP directly to ATP. The assay uses luciferase, which catalyses the formation of light from the newly formed ATP and luciferin. The luminescence was read on a Victor Light 1420 luminometer. IC50 calculations were plotted using a nonlinear regression curve fit.
In a 96-well plate, recombinant human phosphodiesterase 10A1 enzyme (10 U/well) expressed in Baculovirus infected Sf9 cells (BPS Biosciences) was combined with 1 uM cAMP substrate (Sigma). Test compounds (0-30 uM) or vehicle (0.5% DMSO) were added to the enzyme/substrate and incubated 1 hour. Using a PDELight® kit (Cambrex), the amount of AMP produced in the reaction from the hydrolysis of cAMP was quantified using PDELight AMP Detection Reagent which converts the AMP directly to ATP. The assay uses luciferase, which catalyses the formation of light from the newly formed ATP and luciferin. The luminescence was read on a Victor Light 1420 luminometer. IC50 calculations were plotted using a nonlinear regression curve fit.

[7] = Oral pharmacokinetic evaluation; assay type: in vivo, rat; conditions: Sprague-Dawley rats; for half-life / AUC(0-t) / Cmax: male, rat, plasma; for half-life: Sprague-Dawley, po, 15 mg/kg; for AUC(0-t): read-out: Oral PK AUClast; for Cmax: read-out: Oral PK Cmax
Protocol: Three male Sprague-Dawley rats were dosed orally via gavage with 15 mg/kg of test compound. Serial blood samples were collected from the jugular vein at 5, 15, and 30 min, 1, 3, and 6 hours post dosing. Samples were processed for plasma via centrifugation and plasma samples were stored frozen prior to analysis via a sensitive and specific HPLC/MS/MS method. PK parameters were calculated using WinNonLin (Pharsight).

[8] = test system: rat chronic constriction injury (CCI) model of neuropathic pain; test: Rat chronic constriction injury (CCI) model of neuropathic pain; assay type: in vivo; conditions: IP, dose not given; 50% paw withdrawal threshold, von Frey
Protocol: To induce allodynia, male Sprague-Dawley rats underwent chronic constriction injury (CCI) to the sciatic nerve as described by Bennett and Xie, Pain 1988; 33(1):87-107. The plantar surface of the hind paws was stimulated with von Frey filaments (Stoelting) to induce a withdrawal response by blinded personnel. The bending force of fiber required to induce a 50% withdrawal response was calculated following CCI surgery (pre-dosing baseline). N=5-6 allodynic rats received a single IP or oral administration of test compounds or vehicle. Two hours post-dosing, 50% paw withdrawal threshold was determined again by blinded testers using von Frey filaments. The 50% withdrawal threshold prior to CCI surgery, pre-dosing (10 days post-surgery), and 2 hours post-dosing are plotted.
For selected compounds multi-day studies were perfumed with pre-determined schedules for dosing and withdrawal threshold assessments.

[9] = test system: phosphorylated c-Jun (serine-73); test: Phosphorylated c-JUN (A-beta), SH-SY5Y; assay type: cell-based; conditions: Homo sapiens, Amyloid Beta peptide 30 uM, 3 hours, read-out: p-cJun Abeta SH-SY5Y (EC50 in μM)
Protocol: In 96-well plates either human SH-SY5Y neuroblastoma cells at 2.5×10^4 cells/well or E18 rat neuronal cells at 1.5×10^4 cells/well were seeded. […] Supernatant was discarded and cells were fixed with 4% paraformaldehyde (100 ul/well) for 20 minutes. FACE cell based ELISA assay (Active Motif) was performed specific for quantifying phosphorlyated c-Jun (serine-73).

[10] = test system: phosphorylated c-Jun (serine-73); test: Phosphorylated c-JUN (6-OHDA), SH-SY5Y; assay type: cell-based; conditions: Homo sapiens, 50 uM 6-hydroxydopamine, 1.5 hours, read-out: p-cJun 6-OHDA SH-SY5Y (EC50 in μM)
Protocol: Human SH-SY5Y neuroblastoma cells were cultured in 96-well plates with 2.5×10^4 cells/well and incubated for 48 hours. 6-hydroxydopamine was added at a concentration of 50 uM in the presence or absence of test compounds (0-30 uM) and incubated for 1.5 hours. Supernatant was discarded and cells were fixed with 4% paraformaldehyde (100 ul/well) for 20 minutes. FACE cell based ELISA assay (Active Motif) was performed specific for quantifying phosphorlyated c-Jun (serine-73).

[11] = read-out: MCP-1 BV-2 (EC50 in μM)
[12] = read-out: TNF-a BV-2 (EC50 in μM)
[13] = 10 uM ATP, ATF2 substrate, read-out: JNK 2 Inhibition (IC50 in μM)
[14] = read-out: IC50 value based upon a JNK 2 inhibition assay (range given)
[15] = 15 mg/kg oral gavage, read-out: Oral PK T½ (converted)

Row | SMILES | IC50 [1] [µM] | JNK-3 inhibition (in words) [1] | EC50 [2, 11] [µM] | EC50 [2, 12] [µM] | PDE-4 inhibition (in words) [3] | IC50 [3] [µM] | IC50 [4, 13] [µM] | IC50 [4, 14] [µM] | IC50 [5] [µM] | dual inhibition (phosphodiesterase and JNK) [6] | half life following oral dosing (in words) ([7]; oral) | half-life [7, 15] [h] | AUC(0-t) ([7]; 15 mg/kg oral gavage) [ng·h/mL] | Cmax ([7]; 15 mg/kg oral gavage) [ng/mL] | PDE-10 inhibition (in words) [5] | half-life ([7]; oral, read-out: half life following oral dosing) [h] | EC50 [9] [µM] | EC50 [10] [µM] | inhibiting glial cell activation (TNF-α and/or MCP-1) [2] | IP CCI efficacy (Change in grams) [8]
1 | c1ccn2nc(C3CC3)c(-c3ccnc(NC4CCCC4)n3)c2c1 [AV1198, N-cyclopentyl-4-(2-cyclopropylpyrazolo[1,5-a]pyridin-3-yl)pyrimidin-2-amine] | 2.8 | particularly effective | 0.3 | 3.3 | particularly effective | 3.4 | 1.4 | 0.01 to 2 | 6.8 | effective dual inhibitors | particularly prolonged half lives | 3.6 | 79 | 30 | particularly effective | > 3 |  |  | Particularly effective | [0] grams
2 | CC(C)Cc1nn2ccccc2c1-c1ccnc(NC2CCCC2)n1 [AV1178, N-cyclopentyl-4-(2-isobutylpyrazolo[1,5-a]pyridin-3-yl)pyrimidin-2-amine] | 3.6 |  |  |  | particularly effective | 5.4 | 2.8 |  | > 100 | effective dual inhibitors |  |  |  |  |  |  | > 30 |  |  | 

Now those with a lower IC50 [1], led by results:

Row | IC50 [1] [µM] | JNK-3 inhibition (in words) [1] | EC50 [2, 11] [µM] | EC50 [2, 12] [µM] | PDE-4 inhibition (in words) [3] | IC50 [3] [µM] | IC50 [4, 13] [µM] | IC50 [4, 14] [µM] | IC50 [5] [µM] | dual inhibition (phosphodiesterase and JNK) [6] | half life following oral dosing (in words) ([7]; oral) | half-life [7, 15] [h] | AUC(0-t) ([7]; 15 mg/kg oral gavage) [ng·h/mL] | Cmax ([7]; 15 mg/kg oral gavage) [ng/mL] | PDE-10 inhibition (in words) [5] | half-life ([7]; oral, read-out: half life following oral dosing) [h] | EC50 [9] [µM] | EC50 [10] [µM] | SMILES | inhibiting glial cell activation (TNF-α and/or MCP-1) [2] | IP CCI efficacy (Change in grams) [8]
3 | 1.2 | particularly effective | 1.2 | 1 | particularly effective | 3.4 |  |  | 8.4 | effective dual inhibitors |  |  |  |  | particularly effective |  | > 30 | > 30 | CC(C)CNc1nccc(-c2c(C(C)C)nn3ccccc23)n1 [AV1158, N-isobutyl-4-(2-isopropylpyrazolo[1,5-a]pyridin-3-yl)pyrimidin-2-amine] | Particularly effective | 0.93 grams
4 | 0.3 | particularly effective | 1.6 | 0.04 |  | 16.4 |  |  | 53.5 | effective dual inhibitors | particularly prolonged half lives | 1.8 | 160 | 58 |  |  | 4.1 | > 30 | Fc1cccc(-c2nn3ccccc3c2-c2ccnc(NC3CCCC3)n2)c1 [AV1180, N-cyclopentyl-4-(2-(3-fluorophenyl)pyrazolo[1,5-a]pyridin-3-yl)pyrimidin-2-amine] | Particularly effective | 0 grams
5 | 0.05 | particularly effective | 0.7 | 0.03 | particularly effective | 4.9 | 0.09 | 0.01 to 2 | > 100 | effective dual inhibitors | particularly prolonged half lives | 1.2 | 581 | 211 |  |  |  |  | Brc1cccc(-c2nn3ccccc3c2-c2ccnc(NC3CCCC3)n2)c1 [AV1195, 4-(2-(3-bromophenyl)pyrazolo[1,5-a]pyridin-3-yl)-N-cyclopentylpyrimidin-2-amine] | Particularly effective | [0] grams
